Patent US10954240B2, “Compounds inhibiting leucine-rich repeat kinase enzyme activity” (Merck Sharp & Dohme Corp., priority 2014, dated 2021)

Experiments:
[1] = Rat pharmacokinetics, oral AUC; type: in vivo; details: single oral dose 10 mpk, plasma; for AUC: 10 mg/kg
Source text: Representative Example of a Pharmacokinetic Measurement
The pharmacokinetics of a compound of the invention (amorphous free form) can be studied following single intravenous and/or oral administration to mouse, rat, dog and/or monkey. In the present study, the pharmacokinetics of selected compounds of the invention (amorphous free form) were studied following single intravenous and/or oral administration to rat. The IV solution formulations contained 30% captisol/70% water or 1/1 DMSO/PEG-400. The PO solution formulations contained 10% tween/90% PEG-400 or 40% PEG-400/25% of a aqueous HPBCD solution (20%)/35% water. All IV formulations were given as solutions and all PO doses were given as well-behaved suspensions or solutions. Animals were fasted prior to oral dosing in single-dose studies. Oral bioavailability was estimated using non-cross-over study designs (n=2 or 3). Plasma samples were assayed using protein precipitation with acetonitrile/methanol (90/10, v/v) followed by HPLC/MS/MS analysis employing positive-ion Turbo IonSpray ionization. Plasma concentration-time data were analyzed by non-compartmental methods and expressed as AUC (area under the curve) values. Holding dose constant, higher oral AUC values represent greater oral plasma exposure.
The tables above provide oral AUC values for example 1, 8, 12, 17, and 20, in which the compound was dosed in rats at 10 mpk via a method similar to that described above.

[2] = biological target: LRRK2 (G2019S mutation, GST-LRRK2 (amino acids 970-2527)) (Homo sapiens (Human), UniProt Q5S007, G2019S); assay: LRRK2 Km ATP LanthaScreen Assay; type: biochemical; details: mean IC50 of several test results
Chain of LRRK2 (G2019S mutation, GST-LRRK2 (amino acids 970-2527)) (Q5S007 970-2527 G2019S): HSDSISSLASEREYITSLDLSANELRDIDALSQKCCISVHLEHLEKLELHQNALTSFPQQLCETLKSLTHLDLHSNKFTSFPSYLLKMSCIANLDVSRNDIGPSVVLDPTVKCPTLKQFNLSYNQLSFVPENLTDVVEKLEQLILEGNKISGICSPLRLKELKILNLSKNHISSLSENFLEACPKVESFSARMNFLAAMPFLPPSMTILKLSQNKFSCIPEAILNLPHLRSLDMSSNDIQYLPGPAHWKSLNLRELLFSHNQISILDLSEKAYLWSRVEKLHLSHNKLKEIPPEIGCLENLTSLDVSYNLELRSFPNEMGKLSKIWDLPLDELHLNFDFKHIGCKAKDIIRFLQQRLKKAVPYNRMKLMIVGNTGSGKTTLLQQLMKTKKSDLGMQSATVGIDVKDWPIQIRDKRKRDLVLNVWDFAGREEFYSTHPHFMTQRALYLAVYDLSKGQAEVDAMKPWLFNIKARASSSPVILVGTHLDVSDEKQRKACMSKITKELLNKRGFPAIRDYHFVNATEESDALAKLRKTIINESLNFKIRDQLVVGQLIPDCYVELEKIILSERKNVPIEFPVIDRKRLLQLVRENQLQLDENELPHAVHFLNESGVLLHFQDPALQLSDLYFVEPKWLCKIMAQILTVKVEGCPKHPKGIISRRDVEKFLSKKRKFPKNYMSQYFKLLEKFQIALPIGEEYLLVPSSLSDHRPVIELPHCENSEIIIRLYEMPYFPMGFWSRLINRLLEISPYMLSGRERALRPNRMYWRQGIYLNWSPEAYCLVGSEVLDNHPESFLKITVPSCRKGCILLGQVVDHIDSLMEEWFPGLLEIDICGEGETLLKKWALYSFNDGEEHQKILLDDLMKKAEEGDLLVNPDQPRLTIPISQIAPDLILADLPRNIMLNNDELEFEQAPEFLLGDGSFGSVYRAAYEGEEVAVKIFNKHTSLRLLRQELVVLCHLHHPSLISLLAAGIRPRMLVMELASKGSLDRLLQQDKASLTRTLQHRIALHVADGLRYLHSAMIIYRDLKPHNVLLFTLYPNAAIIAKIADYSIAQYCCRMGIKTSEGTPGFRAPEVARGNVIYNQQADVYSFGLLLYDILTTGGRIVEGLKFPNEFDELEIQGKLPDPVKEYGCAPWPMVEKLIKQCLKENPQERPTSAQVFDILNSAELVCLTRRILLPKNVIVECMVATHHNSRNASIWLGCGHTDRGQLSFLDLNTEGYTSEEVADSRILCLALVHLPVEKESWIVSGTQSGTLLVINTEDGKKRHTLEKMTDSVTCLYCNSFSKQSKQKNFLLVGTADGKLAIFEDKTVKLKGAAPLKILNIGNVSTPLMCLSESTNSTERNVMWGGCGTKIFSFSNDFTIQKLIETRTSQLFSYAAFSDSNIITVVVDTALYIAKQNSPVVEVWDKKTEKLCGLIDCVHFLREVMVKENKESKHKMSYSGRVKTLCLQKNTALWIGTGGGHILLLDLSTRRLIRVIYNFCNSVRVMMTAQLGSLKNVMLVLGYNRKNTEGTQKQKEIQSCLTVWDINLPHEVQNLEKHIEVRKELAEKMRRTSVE
Source text: Unless otherwise noted, all LRRK2 IC50 data presented in tables refers to the LRRK2 Km ATP LanthaScreen™ Assay that is described in the Biological Assay section.
The data presented for the Km ATP LanthaScreen™ Assay represents mean IC50 values based on several test results and may have reasonable deviations depending on the specific conditions and reagents used. Reagents for the LRRK2 Km ATP LanthaScreen™ Assay were purchased from Life Technologies Corporation.
LRRK2 Km ATP LanthaScreen™ Assay
a) 400 nl of a 1:2.15 serial dilution of test compound (98 μM top assay concentration) is spotted via Labcyte Echo to certain wells in a 384 well black, untreated plate. Control wells contain 400 nl of either DMSO or 400 nl of a known inhibitor in DMSO.
c) A 30 minute room temperature incubation is followed by addition of 10 μl of 800 nM fluorescein labeled LRRKtide peptide substrate and 186 μM ATP solution in 1× assay buffer to all wells.
d) After a 60 minute room temperature incubation, 20 μl of TR-FRET Dilution Buffer (Invitrogen PV3756B) containing 4 nM Tb-labeled anti-phospho LRRKtide antibody and 20 mM EDTA is added to all wells.
e) Plates are incubated at room temperature for 1 hour and read on an Envision™ multi-mode plate reader with LanthaScreen™ settings. Results are analysed using Assay Data Analyzer.

| Compound | AUC [1] | Rat AUC 10 mpk PO [1] | IC50 [2] |
| --- | --- | --- | --- |
| Cn1cc(-c2ccc3cnn(-c4ccnc(N5CCOCC5)c4)c3c2)cn1 [Example 1, 4-(4-(6-(1-methyl-1H-pyrazol-4-yl)-1H-indazol-1-yl)pyridin-2-yl)morpholine] | 2.1 µM·h | 2.1 ± 0.09 µM·h | – |
| Cn1cc(-c2ccc3cnn(-c4ccnc(N5CCN(S(C)(=O)=O)CC5)c4)c3c2)cn1 [Example 8, 6-(1-methyl-1H-pyrazol-4-yl)-1-(2-(4-(methylsulfonyl)piperazin-1-yl)pyridin-4-yl)-1H-indazole] | 41 µM·h | 41 ± 26 µM·h | 45 nM |
| Cn1cc(-c2ccc3cnn(-c4ccnc(N5CC[C@@H](F)C5)c4)c3c2)cn1 [Example 12, (R)-1-(2-(3-fluoropyrrolidin-1-yl)pyridin-4-yl)-6-(1-methyl-1H-pyrazol-4-yl)-1H-indazole] | 0.82 µM·h | – | 89 nM |
| COc1ccncc1-c1ccc2cnn(-c3ccnc(N4CCOCC4)c3)c2c1 [Example 17, 4-(4-(6-(4-methoxypyridin-3-yl)-1H-indazol-1-yl)pyridin-2-yl)morpholine] | 10 µM·h | 10 ± 2.5 µM·h | 43 nM |
| CN(C)C(=O)CN1CCN(c2cc(-n3ncc4ccc(-c5cnn(C)c5)cc43)ccn2)CC1 [Example 20, N,N-dimethyl-2-(4-(4-(6-(1-methyl-1H-pyrazol-4-yl)-1H-indazol-1-yl)pyridin-2-yl)piperazin-1-yl)acetamide] | 1 µM·h | 1.0 ± 0.19 µM·h | 34 nM |
| CC(C)Oc1ccc2cnn(-c3ccnc(N4CC[C@H](F)C4)c3)c2c1 [Example 43, (S)-1-(2-(3-fluoropyrrolidin-1-yl)pyridin-4-yl)-6-isopropoxy-1H-indazole] | – | – | 950 nM |
| Cn1cc(-c2ccc3cnn(-c4ccnc(N5CCC(O)CC5)c4)c3c2)cn1 [Example 44, 1-(4-(6-(1-methyl-1H-pyrazol-4-yl)-1H-indazol-1-yl)pyridin-2-yl)piperidin-4-ol] | – | – | 100 nM |
| Cn1cc(-c2ccc3cnn(-c4ccnc(N5CCCCC5)c4)c3c2)cn1 [Example 45, 6-(1-methyl-1H-pyrazol-4-yl)-1-(2-(pipendin-1-yl)pyridin-4-yl)-1H-indazole] | – | – | 141 nM |
| Cn1cc(-c2ccc3cnn(-c4ccnc(N5CCCC5)c4)c3c2)cn1 [Example 46, 6-(1-methyl-1H-pyrazol-4-yl)-1-(2-(pyrrolidin-1-yl)pyridin-4-yl)-1H-indazole] | – | – | 74 nM |
| CO[C@H]1CN(c2cc(-n3ncc4ccc(-c5cnn(C)c5)cc43)ccn2)C[C@@H]1O [Example 48, (3S,4S)-4-methoxy-1-(4-(6-(1-methyl-1H-pyrazol-4-yl)-1H-indazol-1-yl)pyridin-2-yl)pyrrolidin-3-ol] | – | – | 399 nM |
| C[C@@H]1CN(c2cc(-n3ncc4ccc(-c5cnn(C)c5)cc43)ccn2)CCO1 [Example 49, (R)-2-methyl-4-(4-(6-(1-methyl-1H-pyrazol-4-yl)-1H-indazol-1-yl)pyridin-2-yl)morpholine] | – | – | 89 nM |
| C[C@H]1CN(c2cc(-n3ncc4ccc(-c5cnn(C)c5)cc43)ccn2)CCO1 [Example 50, (S)-2-methyl-4-(4-(6-(1-methyl-1H-pyrazol-4-yl)-1H-indazol-1-yl)pyridin-2-yl)morpholine] | – | – | 141 nM |
| CCc1nnc2n1CCN(c1cc(-n3ncc4ccc(-c5cnn(C)c5)cc43)ccn1)C2 [Example 51, 3-ethyl-7-(4-(6-(1-methyl-1H-pyrazol-4-yl)-1H-indazol-1-yl)pyridin-2-yl)-5,6,7,8-tetrahydro-[1,2,4]triazolo[4,3-a]pyrazine] | – | – | 217 nM |
| Cn1cc(-c2ccc3cnn(-c4ccnc(N5CCn6ccnc6C5)c4)c3c2)cn1 [Example 52, 7-(4-(6-(1-methyl-1H-pyrazol-4-yl)-1H-indazol-1-yl)pyridin-2-yl)-5,6,7,8-tetrahydroimidazo[1,2-a]pyrazine] | – | – | 189 nM |
| Cn1cc(-c2ccc3cnn(-c4ccnc(N5CCC(C)(O)C5)c4)c3c2)cn1 (stereo not shown) [Example 53, 3-methyl-1-(4-(6-(1-methyl-1H-pyrazol-4-yl)-1H-indazol-1-yl)pyridin-2-yl)pyrrolidin-3-ol] | – | – | 131 nM |
| Cn1cc(-c2ccc3cnn(-c4ccnc(N5CCN(c6ccncn6)CC5)c4)c3c2)cn1 [Example 54, 6-(1-methyl-1H-pyrazol-4-yl)-1-(2-(4-(pyrimidin-4-yl)piperazin-1-yl)pyridin-4-yl)-1H-indazole] | – | – | 97 nM |
| Cn1cc(-c2ccc3cnn(-c4ccnc(N5CCN(CCO)CC5)c4)c3c2)cn1 [Example 55, 2-(4-(4-(6-(1-methyl-1H-pyrazol-4-yl)-1H-indazol-1-yl)pyridin-2-yl)piperazin-1-yl)ethanol] | – | – | 70 nM |
| CS(=O)(=O)N1CCN(c2cc(-n3ncc4ccc(-c5cccnc5)cc43)ncn2)CC1 [Example 62, 1-{6-[4-(methylsulfonyl)piperazin-1-yl]pyrimidin-4-yl}-6-pyridin-3-yl-1H-indazole] | – | – | 486 nM |
| Cn1cc(-c2ccc3cnn(-c4cc(N5CCN(S(C)(=O)=O)CC5)ncn4)c3c2)cn1 [Example 63, 6-(1-methyl-1H-pyrazol-4-yl)-1-{6-[4-(methylsulfonyl)piperazin-1-yl]pyrimidin-4-yl}-1H-indazole] | – | – | 317 nM |
| CS(=O)(=O)N1CCN(c2cc(-n3ncc4ccc(-c5ccn[nH]5)cc43)ncn2)CC1 [Example 64, 1-{6-[4-(methylsulfonyl)piperazin-1-yl]pyrimidin-4-yl}-6-(1H-pyrazol-5-yl)-1H-indazole] | – | – | 18 nM |
| CS(=O)(=O)N1CCN(c2cc(-n3ncc4ccc(-c5cn[nH]c5)cc43)ncn2)CC1 [Example 66, 1-{6-[4-(methylsulfonyl)piperazin-1-yl]pyrimidin-4-yl}-6-(1H-pyrazol-4-yl)-1H-indazole] | – | – | 68 nM |
| c1cncc(-c2ccc3cnn(-c4cc(N5CCOCC5)ncn4)c3c2)c1 [Example 67, 1-(6-morpholin-4-ylpyrimidin-4-yl)-6-pyridin-3-yl-1H-indazole] | – | – | 130 nM |
| Cn1cc(-c2ccc3cnn(-c4cc(N5CCOCC5)ncn4)c3c2)cn1 [Example 68, 6-(1-methyl-1H-pyrazol-4-yl)-1-(6-morpholin-4-ylpyrimidin-4-yl)-1H-indazole] | – | – | 79 nM |
| c1cc(-c2ccc3cnn(-c4cc(N5CCOCC5)ncn4)c3c2)[nH]n1 [Example 69, 1-(6-morpholin-4-ylpyrimidin-4-yl)-6-(1H-pyrazol-5-yl)-1H-indazole] | – | – | 10.5 nM |
| c1nc(N2CCOCC2)cc(-n2ncc3ccc(-c4cn[nH]c4)cc32)n1 [Example 70, 1-(6-morpholin-4-ylpyrimidin-4-yl)-6-(1H-pyrazo-4-yl)-1H-indazole] | – | – | 77 nM |
| c1nc(N2CCOCC2)cc(-n2ncc3ccc(C4CC4)cc32)n1 [Example 71, 6-cyclopropyl-1-(6-morpholin-4-ylpyrimidin-4-yl)-1H-indazole] | – | – | 231 nM |
